Measured values: publication PMC13101830 (Pharmaceutical research, 2023)
Where a SMILES comes first, the peptide text is derived from it.

Test system: BBB-mimicking system with the co-culture of bEnd.3 and astrocytes
Test: In vitro BBB permeability assay in BBB-mimicking co-culture model
Type: in vitro ADME, mouse
Settings: 10 μg/ml in top chamber, 30-120 min, 37°C

N[C@@H](Cc1cnc[nH]1)C(=O)N[C@@H](Cc1ccc(O)cc1)C(=O)O [His-Tyr] (H-His-Tyr-OH)
permeability coefficient (Pe), apical to basolateral (A > B): 0.12 ± 0.02 × 10^−5 cm^2/second
